Experimental data taken from patent publication US9266835B2, “Quinoline derivatives useful as CB-1 inverse agonists” (JANSSEN PHARMACEUTICA NV, priority 2014, dated 2016).

Assay: Chronic DIO Mouse, first study (food intake, body weight, insulin tolerance test, glucose tolerance test, plasma insulin, fed blood glucose)
Format: in vivo
Conditions: DIO mice; for Fed Blood Glucose / Plasma Insulin: mean (Std Err)
Method: Male 14-20-week old diet-induced obese mice were ordered from Taconic. Mice were started on a 60% fat diet (D12492, Research Diets, New Brunswick, N.J.) at 6 weeks of age. Mice were single-housed.
Test compounds were formulated in 10% PEG400 and 10% solutol. Test compounds were administered by oral gavage (5 ml kg^−1).
The test compound was formulated in 10% PEG400 and 10% solutol. DIO mice received vehicle, test compound (@ 1, 3 and 10 mg/kg) daily for 26 days. At the end of the experiment, the mice were euthanized and blood and tissues were collected.
Body weight and food weight (food intake) were monitored daily for days 1-5 and twice weekly thereafter. Fed blood glucose was measured weekly.
An insulin tolerance test (0.5 U/kg Humulin, ip) was performed on day 19 after a 4 hour food removal. Blood glucose was measured at 0, 15, 30, 60 and 120 minutes after insulin. […] Blood glucose was measured at 0, 30, 60 and 120 minutes after glucose challenge.
Blood glucose was measured from the tail vein with a Lifescan glucometer. Plasma insulin was measured with an ELISA or HTRF kit (Cisbio). Plasma parameters were measured with an Olympus clinical chemistry analyzer.
Compound #44 was tested according to the procedure as described above, with results as listed in Table BIO-4A through Table BIO4-G, below.

SMILES: O=c1cc(NC2CCN(S(=O)(=O)C(F)(F)F)CC2)c2cc(C(c3ccc(Cl)cc3)c3ccc(Cl)cc3)ccc2[nH]1 [Compound #44, 6-(bis(4-chlorophenyl)methyl)-4-(1-(trifluoromethylsulfonyl)piperidin-4-ylamino)quinolin-2(1H)-one]
- Fed Blood Glucose (1 mg/kg daily oral, Day 0): 162.75 (13.02) mg/dL
- Fed Blood Glucose (1 mg/kg daily oral, Day 18): 154.83 (5.98) mg/dL
- Plasma Insulin (1 mg/kg daily oral): 2.60 (0.3) ng/mL
- Mean Body Weight (Std Err) (1 mg/kg daily, Day 1): 43.32 (0.45) Grams
- Mean Body Weight (Std Err) (1 mg/kg daily, Day 2): 43.28 (0.45) Grams
- Mean Daily Food Intake (Std Err) (1 mg/kg daily, Day 2): 2.84 (0.17) Grams
- Mean Body Weight (Std Err) (1 mg/kg daily, Day 3): 43.28 (0.42) Grams
- Mean Daily Food Intake (Std Err) (1 mg/kg daily, Day 3): 3.00 (0.09) Grams
- Mean Body Weight (Std Err) (1 mg/kg daily, Day 4): 43.06 (0.44) Grams
- Mean Daily Food Intake (Std Err) (1 mg/kg daily, Day 4): 2.76 (0.17) Grams
- Mean Body Weight (Std Err) (1 mg/kg daily, Day 5): 43.21 (0.50) Grams
- Mean Daily Food Intake (Std Err) (1 mg/kg daily, Day 5): 2.88 (0.12) Grams
- Mean Body Weight (Std Err) (1 mg/kg daily, Day 8): 42.62 (0.48) Grams
- Mean Daily Food Intake (Std Err) (1 mg/kg daily, Day 8): 2.50 (0.09) Grams
- Mean Body Weight (Std Err) (1 mg/kg daily, Day 10): 42.38 (0.51) Grams
- Mean Daily Food Intake (Std Err) (1 mg/kg daily, Day 10): 2.37 (0.07) Grams
- Mean Body Weight (Std Err) (1 mg/kg daily, Day 11): 42.07 (0.63) Grams
- Mean Daily Food Intake (Std Err) (1 mg/kg daily, Day 11): 2.28 (0.15) Grams
- Insulin Tolerance Test, Blood Glucose AUC (1 mg/kg daily, day 19): 18543.8 mg·min/dL
- Insulin Tolerance Test Mean Blood Glucose (Std Err) (1 mg/kg daily, day 19, 0 min after insulin): 194.0 (6.1) mg/dL
- Insulin Tolerance Test Mean Blood Glucose (Std Err) (1 mg/kg daily, day 19, 15 min after insulin): 196.1 (18.6) mg/dL
- Insulin Tolerance Test Mean Blood Glucose (Std Err) (1 mg/kg daily, day 19, 30 min after insulin): 136.7 (10.4) mg/dL
- Insulin Tolerance Test Mean Blood Glucose (Std Err) (1 mg/kg daily, day 19, 60 min after insulin): 145.1 (11.5) mg/dL
- Insulin Tolerance Test Mean Blood Glucose (Std Err) (1 mg/kg daily, day 19, 120 min after insulin): 151.4 (7.8) mg/dL
- Intraperitoneal Glucose Tolerance Test Blood Glucose AUC (1 mg/kg daily, day 23): 29525.6 mg·min/dL
- Intraperitoneal Glucose Tolerance Test Mean Blood Glucose (Std Err) (1 mg/kg daily, day 23, 0 min after glucose): 158.1 (6.9) mg/dL
- Intraperitoneal Glucose Tolerance Test Mean Blood Glucose (Std Err) (1 mg/kg daily, day 23, 30 min after glucose): 334.6 (14.5) mg/dL
- Intraperitoneal Glucose Tolerance Test Mean Blood Glucose (Std Err) (1 mg/kg daily, day 23, 60 min after glucose): 264.8 (19.7) mg/dL
- Intraperitoneal Glucose Tolerance Test Mean Blood Glucose (Std Err) (1 mg/kg daily, day 23, 120 min after glucose): 173.4 (13.5) mg/dL
- Fed Blood Glucose (3 mg/kg daily oral, Day 0): 167.13 (7.59) mg/dL
- Fed Blood Glucose (3 mg/kg daily oral, Day 18): 156.50 (7.39) mg/dL
- Plasma Insulin (3 mg/kg daily oral): 2.26 (0.3) ng/mL
- Mean Body Weight (Std Err) (3 mg/kg daily, Day 1): 43.19 (0.39) Grams
- Mean Body Weight (Std Err) (3 mg/kg daily, Day 2): 42.86 (0.47) Grams
- Mean Daily Food Intake (Std Err) (3 mg/kg daily, Day 2): 2.71 (0.13) Grams
- Mean Body Weight (Std Err) (3 mg/kg daily, Day 3): 42.71 (0.56) Grams
- Mean Daily Food Intake (Std Err) (3 mg/kg daily, Day 3): 2.92 (0.13) Grams
- Mean Body Weight (Std Err) (3 mg/kg daily, Day 4): 42.20 (0.65) Grams
- Mean Daily Food Intake (Std Err) (3 mg/kg daily, Day 4): 2.44 (0.24) Grams
- Mean Body Weight (Std Err) (3 mg/kg daily, Day 5): 41.95 (0.70) Grams
- Mean Daily Food Intake (Std Err) (3 mg/kg daily, Day 5): 2.26 (0.20) Grams
- Mean Body Weight (Std Err) (3 mg/kg daily, Day 8): 41.06 (0.76) Grams
- Mean Daily Food Intake (Std Err) (3 mg/kg daily, Day 8): 2.30 (0.11) Grams
- Mean Body Weight (Std Err) (3 mg/kg daily, Day 10): 40.50 (0.74) Grams
- Mean Daily Food Intake (Std Err) (3 mg/kg daily, Day 10): 2.14 (0.15) Grams
